Reference: PMC8151276, “An Integrated Approach toward NanoBRET Tracers for Analysis of GPCR Ligand Engagement” (Molecules, 2021)

Biological target: T1, GPR50 (Homo sapiens, UniProt Q13585)
T1 construct: purchased Promega (in-house HiBiT-GPCR construct library, NanoBRET)
Assay: NanoBRET screen HiBiT-GPR50 in HEK293
Assay type: binding
Method: Each tracer candidate was screened across the entire library of HiBiT-GPCR constructs using NanoBRET as the detection modality. As depicted in Figure 4A, the specificity of interactions was evaluated through decrease in BRET due to competitive displacement of a bound tracer by excess parental compound. Each tracer was analyzed for binding to each HiBiT-GPCR fusion in the absence and in the presence of competing parental compound. Briefly, HEK293 cells were transfected with HiBiT-GPCR constructs diluted into promoterless DNA to reduce expression and maximize translocation to the cell surface. Each tracer candidate was then screened at concentrations of 1 μM and 0.1 μM across cells expressing these fusions. Cells were treated for 1.5 h with tracer either alone or in the presence of 20 μM competing parental compound (i.e., control). BRET was measured upon addition of purified LgBiT and subsequent complementation with HiBiT genetically fused to a GPCR. The specificity of interactions was assessed through a decrease in BRET signal due to competitive displacement of the bound tracer. To further gauge the robustness of these interactions, the fold response over the control (i.e., BRETtracer/BRETcontrol) was calculated. We chose a 1.5-fold response, which translates to ≥7-fold signal over noise as the minimal threshold required to score an interaction as positive.
HiBiT-GPCR DNA constructs were diluted in 10 mM Tris pH 8 to a final concentration of 0.01 μg/μL, arrayed in 96-well plates and stored at −20 °C. For transfection, HEK293 cells were suspended in Opti-MEM (without phenol red) supplemented with 2% fetal bovine serum (Seradigm) and 100 units/mL penicillin–streptomycin (Gibco) at a final concentration of 220,000 cells/mL and dispensed into white 96-well plates at 90 μL/well. Subsequent transfections and screens were carried using an Agilent Bravo Automated Liquid Handling Platform. First, the 96-well HiBiT DNA arrays were diluted 25-fold in Opti-MEM (without serum or phenol red) to a final concentration of 0.0004 μg/μL and 20 μL of the diluted DNAs were transferred into new 96-well plates. Next, promoterless carrier DNA (1 μg/μL) was diluted 25-fold (0.04 μg/μL) and then dispensed into the diluted arrays at 20 μL/well. Following brief mixing, Viafect transfection reagent (Promega) diluted 16-fold into Opti-MEM was dispensed into the plates at 40 μL/well. After mixing by pipetting, plates were incubated for 10 min on the pipetting station deck. The DNA-transfection reagent complexes were then added to plates containing cells. To facilitate the screen, 10 μL of DNA-transfection reagent complexes were added in duplicates to the top 4 and bottom 4 rows, resulting in two identical 48-well arrays per plate. Plates with transfected cells were incubated for 18–20 h at 37 °C/5% CO2. A screen of each tracer across the entire library using two different concentrations requires duplicate plates of transfected cells. Depending on the number of tracers being screened, transfections can be scaled up using the same ratios. The next day, for each tracer, four 20× screening solutions in tracer dilution buffer (Promega) were prepared: two duplicates at final concentration of 20 μM and two duplicates at a final concentration of 2 μM. […] The four resulting solutions were diluted 4-fold in Opti-MEM without serum or phenol red to generate 5× solutions (5 µM and 0.5 µM tracer +/− 100 μM competing compound). To screen the library, a BioTek MultiFlo FX liquid dispenser was used to dispense 22.5 µL of tracer solution to the top 4 rows and 22.5 µL tracer + competing compound solution to the 4 bottom rows. Plates were briefly mixed on an orbital shaker and incubated for 1.5 h at room temperature. […] Plates were briefly mixed on an orbital shaker and incubated for 15 min to allow complementation.

T1 sequence (Q13585 whole entry): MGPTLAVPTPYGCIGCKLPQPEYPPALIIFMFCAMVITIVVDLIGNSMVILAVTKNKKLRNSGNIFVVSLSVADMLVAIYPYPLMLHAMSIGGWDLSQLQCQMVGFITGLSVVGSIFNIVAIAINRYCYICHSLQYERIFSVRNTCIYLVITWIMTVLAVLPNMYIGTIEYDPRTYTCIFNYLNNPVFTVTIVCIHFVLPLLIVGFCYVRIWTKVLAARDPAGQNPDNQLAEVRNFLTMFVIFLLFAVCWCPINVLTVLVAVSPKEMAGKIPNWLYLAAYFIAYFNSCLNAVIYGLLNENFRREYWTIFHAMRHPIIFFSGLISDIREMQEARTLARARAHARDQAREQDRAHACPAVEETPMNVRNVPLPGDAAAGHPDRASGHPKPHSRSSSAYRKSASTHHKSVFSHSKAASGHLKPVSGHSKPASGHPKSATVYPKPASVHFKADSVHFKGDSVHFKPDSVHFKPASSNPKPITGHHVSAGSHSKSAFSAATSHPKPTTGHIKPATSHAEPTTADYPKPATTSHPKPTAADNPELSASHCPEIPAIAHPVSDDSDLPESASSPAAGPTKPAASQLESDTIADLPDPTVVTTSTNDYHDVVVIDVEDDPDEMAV

Row | Structure (SMILES) | NanoBRET Fold Response (GPR50, tracer 0.1μM) | NanoBRET Fold Response (GPR50, tracer 1μM) | also measured
1 | O=C(CCc1ccc2n1[B-](F)(F)[N+]1=C(c3ccc[nH]3)C=CC1=C2)NCc1ccc(C(=O)NCCOCCC(=O)N[C@@H]2CC[C@@]3(O)[C@H]4Cc5ccc(O)c6c5[C@@]3(CCN4CC3CC3)[C@H]2O6)cc1 [Naltrexone-3-NB590] | 0.94 | 0.97 | –
2 | CCCn1c(=O)c2[nH]c(-c3ccc(OCC(=O)NCCNC(=O)CCOCCNC(=O)c4ccc(CNC(=O)CCc5ccc6n5[B-](F)(F)[N+]5=C(c7ccc[nH]7)C=CC5=C6)cc4)cc3)nc2n(CCC)c1=O [XAC-3-NB590] | 1.05 | 1.04 | –
3 | CC(C)N(CC[C@H](c1ccccc1)c1cc(CCNC(=O)c2ccc(CNC(=O)CCc3ccc4n3[B-](F)(F)[N+]3=C(c5ccc[nH]5)C=CC3=C4)cc2)ccc1O)C(C)C [Tolterodine-BZ-NB590] | 0.94 | 0.39 | –
4 | COc1ccc2[nH]c(-c3ccc(CNC(=O)CCOCCOCCOCCOCCNC(=O)CCc4ccc5n4[B-](F)(F)[N+]4=C(c6ccc[nH]6)C=CC4=C5)cc3)c(CCNC(C)=O)c2n1 [AzomelatoninICO9-2-NB590] | – | – | NanoBRET Fold Response (0.1μM tracer): 0.96; NanoBRET Fold Response (1μM tracer): 1.01
5 | COc1ccccc1N1CCN(CCCCN2C(=O)c3ccc(CNC(=O)CCOCCNC(=O)c4ccc(CNC(=O)CCc5ccc6n5[B-](F)(F)[N+]5=C(c7ccc[nH]7)C=CC5=C6)cc4)cc3C2=O)CC1 [NAN-190-3-NB590] | 0.97 | 0.89 | –
6 | Cc1nc2n(c(=O)c1CCN1CCC(c3noc4cc(F)ccc34)CC1)CCCC2OC(=O)NCCOCCOCCOCCOCCNC(=O)CCc1ccc2n1[B-](F)(F)[N+]1=C(c3ccc[nH]3)C=CC1=C2 (centres unmarked) [Risperidone-2-NB590] | 0.99 | 1.01 | –
7 | O=C(CCOCCOCCOCCOCCNC(=O)CCc1ccc2n1[B-](F)(F)[N+]1=C(c3ccc[nH]3)C=CC1=C2)NCCCN1CCN(C2=Nc3ccccc3Oc3ccc(Cl)cc32)CC1 [Loxapine-a-2-NB590] | 0.74 | 1.09 | –
8 | COc1ccccc1N1CCN(CCCCN2C(=O)c3ccc(CNC(=O)CCOCCOCCOCCOCCNC(=O)CCc4ccc5n4[B-](F)(F)[N+]4=C(c6ccc[nH]6)C=CC4=C5)cc3C2=O)CC1 [NAN-190-2-NB590] | 1.00 | – | –
9 | CC(C)N(CC[C@H](c1ccccc1)c1cc(CCNC(=O)CCOCCOCCOCCOCCNC(=O)CCc2ccc3n2[B-](F)(F)[N+]2=C(c4ccc[nH]4)C=CC2=C3)ccc1O)C(C)C [Tolterodine-2-NB590] | 1.12 | 0.93 | –
10 | N#CN=C(NCCCOc1cccc(CN2CCCCC2)c1)NCCNC(=O)CCOCCOCCOCCOCCNC(=O)CCc1ccc2n1[B-](F)(F)[N+]1=C(c3ccc[nH]3)C=CC1=C2 [Aminopotentidine-2-NB590] | 1.02 | 0.97 | –
11 | CCOC(=O)c1cc(C#N)c(N2CCC(C(=O)NS(=O)(=O)Cc3ccccc3/C=C/C(=O)NCCNC(=O)CCc3ccc4n3[B-](F)(F)[N+]3=C(c5ccc[nH]5)C=CC3=C4)CC2)nc1C [AZD1283-1-NB590] | – | – | NanoBRET Fold Response (GPR50, 0.1μM): 0.97; NanoBRET Fold Response (GPR50, 1μM): 0.97
12 | CN(C)CCC=C1c2ccccc2CCc2ccc(C(=O)NCCNC(=O)CCOCCOCCOCCOCCNC(=O)CCc3ccc4n3[B-](F)(F)[N+]3=C(c5ccc[nH]5)C=CC3=C4)cc21 [Amitriptyline-b-2-NB590] | 0.99 | 0.99 | –
13 | O=C(CCc1ccc2n1[B-](F)(F)[N+]1=C(c3ccc[nH]3)C=CC1=C2)NCCOCCOCCNC(=O)OCCOCCN1CCN(C2=Nc3ccccc3Sc3ccccc32)CC1 [Quetiapine-a-2-NB590] | 1.11 | 0.96 | –
14 | Cc1cc2c(s1)Nc1ccccc1N=C2N1CCN(CCCNC(=O)CCOCCOCCOCCOCCNC(=O)CCc2ccc3n2[B-](F)(F)[N+]2=C(c4ccc[nH]4)C=CC2=C3)CC1 [Olanzapine-a-2-NB590] | 1.01 | 1.03 | –
15 | CN1CCN(C2=Nc3cc(Cl)ccc3Nc3ccc(CNC(=O)CCOCCOCCOCCOCCNC(=O)CCc4ccc5n4[B-](F)(F)[N+]4=C(c6ccc[nH]6)C=CC4=C5)cc32)CC1 [Clozapine-b-2-NB590] | – | – | NanoBRET Fold Response (GPR50, 0.1μM tracer): 0.98; NanoBRET Fold Response (GPR50, 1μM tracer): 0.97
16 | COc1ccc2c(n1)c(CCNC(C)=O)cn2CCNC(=O)CCc1ccc2n1[B-](F)(F)[N+]1=C(c3ccc[nH]3)C=CC1=C2 [Azamelatonin-1-NB590] | – | – | NanoBRET Fold Response (0.1μM tracer): 0.95; NanoBRET Fold Response (1μM tracer): 0.91
17 | O=C(CCc1ccc2n1[B-](F)(F)[N+]1=C(c3ccc[nH]3)C=CC1=C2)NCc1ccc(C(=O)NCCOCCOCCNCC(O)COc2cccc3ccccc23)cc1 (centres unmarked) [Propranolol-3-NB590] | – | – | NanoBRET Fold Response (GPR50, 0.1μM): 1.01; NanoBRET Fold Response (GPR50, 1μM): 1.05
18 | O=C(CCOCCOCCOCCOCCNC(=O)CCc1ccc2n1[B-](F)(F)[N+]1=C(c3ccc[nH]3)C=CC1=C2)NCCCN1CCN(C2=Nc3cc(Cl)ccc3Nc3ccccc32)CC1 [Clozapine-a-2-NB590] | – | – | NanoBRET Fold Response (GPR50, 0.1μM tracer): 1.04; NanoBRET Fold Response (GPR50, 1μM tracer): 1.00
